Test results: patent publication US20240083874A1, “TARGETING PLECKSTRIN-2 FOR TREATING CANCER AND OTHER DISEASES AND DISORDERS” (Northwestern University, priority 2021, published 2024)
“Also recorded” adds a separate entry of the source.

Tested on: mouse fetal liver erythroblasts
Test: mouse fetal liver erythroblast proliferation in erythropoietin containing medium
Format: cell-based
Conditions: approximately 10 uM NUP-52A added to the culture; proliferation monitored daily for two days; comparable to JAK2 inhibitor Ruxolitinib (FIG. 4)
Description: FIG. 4. Effect of NUP-52A on cell proliferation, differentiation, and enucleation in comparison to ruxolitinib. Ter119 negative mouse fetal liver erythroblasts were purified and cultured in erythropoietin containing medium. NUP-52A (Panels A, B, and C) or Ruxolitinib (Panels D, E, and F) with indicated concentrations were added to the culture media at the start of culture. The cells were cultured for two days. Cell proliferation, differentiation, and enucleation were analyzed using flow cytometry on day 2.
To screen these compounds, an assay using a well-developed Plek2 functional screening system (28) was performed. In this system, mouse fetal liver erythroid progenitors are purified and cultured in erythropoietin containing medium. These cells undergo rapid proliferation closely mimicking accelerated erythropoiesis in MPNs. In these cells, Plek2 is also highly expressed during the culture. This system then may be utilized to test Plek2 inhibitor compounds.
We used mouse fetal liver erythroblasts to test the compound. Approximately 10 uM NUP-52A was added in the fetal liver erythroblast culture and the proliferation of the cells is monitored daily for two days. […] (See FIG. 4).

In the case of `Clc1ccc2c(N3CCNCC3)cc(-c3c[nH]c4ccccc34)nc2c1` [NUP-52A, 7-chloro-4-(piperazin-1-yl)-2-(1H-indol-3-yl)quinoline], the “effect on the proliferation of erythroblasts” value is reported as “potent effects; also recorded: strong inhibitory effects”.
